# Reference: US8129412B2, “Hydantoin derivatives useful as metalloproteinase inhibitors” (AstraZeneca AB, priority 2004, dated 2012)
# Target: T1, Recombinant human proMMP13 (collagenase 3) (Homo sapiens, UniProt P45452)
# T1 construct: made in house
# Assay: Collagenase 3 (MMP13) enzyme inhibition assay with fluorogenic peptide substrate
# Type: biochemical
# Conditions: APMA-activated MMP13, 4-5 hours at 35° C., pH 7.5, fluorescence λex 328 nm / λem 393 nm
# Procedure: Collagenase 3 (MMP13) inhibitory activity may be assessed, for example, using the procedure set out below:—
# Activity is determined by measuring the fluorescence at λex 328 nm and λem 393 nm.
row,IC50 [nM],Compound
1,13,"CC[C@]1(CS(=O)(=O)N2CCC(Oc3ccc(OC(F)(F)C(F)(F)F)cc3)CC2)NC(=O)NC1=O [Example 6, (5S)-5-ethyl-5-[({4-[4-(pentafluoroethoxy)phenoxy]piperidin-1-yl}sulfonyl)methyl]imidazolidine-2,4-dione]"
2,4.9,"CCC1(CS(=O)(=O)N2CCC(Oc3ccc(OC(F)(F)C(F)F)cc3)CC2)NC(=O)NC1=O (stereo not drawn) [Example 4, 5S-ethyl-5-[({4-[4-(1,1,2,2-tetrafluoroethoxy)phenoxy]piperidin-yl}sulfonyl)methyl]imidazolidine-2,4-dione]"
3,5.5,CCC1(CS(=O)(=O)N2CCC(Oc3ccc(OCCC(F)(F)F)cc3)CC2)NC(=O)NC1=O (stereo not drawn) [Example 8]
4,1.9,"CC[C@]1(CS(=O)(=O)N2CCC(Oc3ccc(OCC(F)(F)C(F)(F)F)cc3)CC2)NC(=O)NC1=O [Example 12, (5S)-5-ethyl-5-[({4-[4-(2,2,3,3,3-pentafluoropropoxy)phenoxy]-piperidin-1-yl}sulphonyl)methyl]imidazolidine-2,4-dione]"
5,0.7,"CC[C@]1(CS(=O)(=O)N2CCC(Oc3ccc(OCC(F)(F)C(F)F)cc3)CC2)NC(=O)NC1=O [Example 10, (5S)-5-ethyl-5-[({4-[4-(2,2,3,3-tetrafluoropropoxy)phenoxy]-piperidin-1-yl}sulphonyl)methyl]imidazolidine-2,4-dione]"
6,8.4,"CC[C@]1(CS(=O)(=O)N2CCC(Oc3ccc(OCC(F)(F)F)cc3)CC2)NC(=O)NC1=O [Example 2, (5S)-5-ethyl-5-[({4-[4-(2,2,2-trifluoroethoxy)phenoxy]piperidin-1-yl}sulfonyl)methyl]imidazolidine-2,4-dione]"
